# Experimental data: patent US5545615A, “A method of inhibiting fertilization by alpha-1-antitrypsin or antithrombin III” (ZymoGenetics, Inc., priority 1994, dated 1996)
# Columns and labels:
# [1] = system: fertilization in vitro; settings: cited from earlier work
# [2] = system: acrosin; settings: cited from earlier work
# [3] = system: boar acrosin; assay: SDS-PAGE / Western blot analysis of AAT-acrosin reaction mixture; format: binding
# Method: Lanes 1 and 6, proacrosin (^~ 5 ug) autoactivated to acrosin; Lanes 2 and 7, alpha-1-antrypsin (^~ 2 ug); Lanes 3 and 8, alpha-1-antitrypsin (~2 ug)+activated proacrosin (~5 ug) in 0.1M Tris, pH 8.0; Lanes 4 and 9, alpha-1-antitrypsin (^~ 2 ug)+activated proacrosin (^~ 5 ug) in 0.1M Tris, 0.05M CaCl2, pH 8.0; Lane 5, molecular weight markers.
# (§1) The nature of the reaction between AAT and acrosin was examined by electrophoresis under reducing and denaturing conditions and by Western blot analysis. AAT (2 μg) and activated boar proacrosin (5 μg) were incubated in a buffer containing 0.1M Tris, pH 8.0. Acrosin activity was inhibited 48% in the BAEE assay. […] Thus, all inhibition is accounted for by the formation of a covalent complex.
# [4] = system: sperm and ova of hybrid mouse strain B6D2F1; assay: In vitro fertilization assay with mouse sperm and oocytes; format: cell-based
# Method: The ability of AAT to inhibit fertilization in vitro was tested using sperm and ova obtained from the hybrid mouse strain B6D2F1. This strain was chosen because a 75% to 85% in vitro fertilization rate is routine and the female mice respond well to superovulatory drugs, producing an average of 30 normal oocytes per animal.
# Oocytes were collected from 3- to 4-week-old female B6D2F1 mice. The animals received 5 international units of pregnant mare's serum gonadotropin to initiate follicular growth. After 48 hours, 5 international units of human chorionic gonadotropin were given to effect ovulation. Twelve hours after the last injection, oviducts were removed and oocytes were collected by puncture of the ampullary region, allowing the release of cumulus enclosed oocytes (cumulus clots) into 0.2 ml Fraser's medium (Fraser and Drury, Biol. Reprod. 13: 513-518, 1975) under paraffin oil. To randomize oocyte distribution, all cumulus clots were collected into one dish of medium and then placed into the fertilization medium. Oocytes were collected, on average, 15 minutes before sperm addition.
# Sperm were collected from the cauda epididymus of 9- to 14-week-old male B6D2F1 mice of proven fertility. Each epididymus contained approximately 40 million sperm with 70% to 80% motility. […]
# After the one-hour capacitation period, the sperm were counted by hemocytometer and […] sperm cells/ml were added to 0.2 ml Fraser's, medium (free of alpha-1-antitrypsin or containing AAT at the above concentrations) containing cumulus cell-enclosed oocytes. […]
# The above experiments were designed to analyze the effective inhibitory concentration of alpha-1-antitrypsin and to detect differences in fertilization rate resulting from the capacitation/acrosome reaction state of the sperm. […] Data are expressed as percent oocytes with two pronuclei and a second polar body. […]
# [5] = system: female mice; assay: In vivo inhibition of fertilization, intravaginal cream in female mice; parameters: species or system mouse; settings: individual mice 1-5; cream 100 mg AAT/20 ml, 100 μl intravaginal prior to copulation; sacrificed 12 days after copulation
# Method: For in vivo testing, a cream was prepared by dissolving 100 mg of recombinant AAT in 5 ml of phosphate-buffered saline (PBS; obtained from Sigma Chemical Co.). This solution was emulsified with 15 ml of K-Y Jelly (Johnson & Johnson) to give a final AAT concentration of 100 mg/20 ml.
# The cream (100 μl) was administered intravaginal to female mice using an Eppendorf pipette prior to copulation. Control females were untreated or received a control cream consisting of 100 mg bovine serum albumin in 5 ml of PBS plus 15 ml of K-Y Jelly. Copulation was confirmed in two of five BSA controls and four of five experimental mice. Mice were sacrificed 12 days after copulation and the number of fetuses was noted. Results, shown in Table 1, indicate that alpha-1-antitrypsin is an effective contraceptive agent.
# [6] = system: boar acrosin; settings: cited from earlier work
# [7] = system: human acrosin; settings: cited from earlier work
# [8] = system: boar acrosin; assay: Spectrophotometric acrosin assay with substrate BAEE; format: biochemical
# Method: The effects of alpha-1-antitrypsin on purified acrosin were measured spectrophotometrically using the acrosin substrate N-α-benzoyl-L-arginine ethyl ester (BAEE) essentially as described by Polakoski and Zaneveld (Methods in Enzymology 45 (part B): 325, 1976). Boar acrosin was combined with AAT in 0.025M Tris, pH 7.0, containing BAEE. A control sample lacked AAT. The absorbance of the reaction mixture was monitored at 253 nm.
# as §1
Substance,effect on fertilization in vitro [1],effect on acrosin activity [2],"complex formation between inhibitor and enzyme (Western blot) ([3]; AAT 2 μg + activated boar proacrosin 5 μg, 0.1M Tris, pH 8.0, reducing and denaturing 12% SDS-PAGE)",complex formation between inhibitor and enzyme (Western blot) ([3]; same analysis in the presence of 0.05M CaCl2),"blocking of fertilization ([4]; AAT in both capacitation and fertilization media, all concentrations except 0.01 mM (0.05-1 mM), FIG. 4)","concentrations of AAT effective in blocking fertilization ([4]; capacitation in AAT-containing medium, fertilization in control medium, FIG. 3)","decrease of fertilization rate (percent oocytes with two pronuclei and a second polar body) ([4]; sperm capacitated in control medium, fertilization in AAT-containing medium, all concentrations tested (0.01-1 mM), control fertilization rate 77%, FIG. 2)",Number of Fetuses [5],inhibition of boar acrosin in vitro [6],inhibition of human acrosin in vitro [7],"Acrosin activity inhibited in the BAEE assay ([8]; AAT 2 μg + activated boar proacrosin 5 μg, 0.1M Tris, pH 8.0) [%]","inhibition of acrosin in the test system (BAEE hydrolysis, absorbance at 253 nm) ([8]; boar acrosin combined with AAT in 0.025M Tris, pH 7.0, containing BAEE, amount of AAT tested)"
soybean trypsin inhibitor,prevent fertilization in vitro,block acrosin activity,,,,,,,,,,
alpha-1-antitrypsin [AAT],,,formation of a high molecular weight complex,essentially identical results,effective in blocking fertilization,greater than 0.2 mM,about 50%,0,inhibit,inhibit,48,complete inhibition
